Patent US9834518B2, “Compounds for inhibiting cell proliferation in EGFR-driven cancers” (ARIAD Pharmaceuticals, Inc., priority 2011, dated 2017)

Tests used:
[1] = target: BAF3 EGFR DEL T790M PURO POOL (Homo sapiens, UniProt P00533, DEL746-750/T790M, cells depend on it); experiment: Cell proliferation (MTT), BAF3 EGFR DEL T790M; format: cell-based
Method in brief: (§1)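 Growth inhibition of EGFR-mutant BaF3 cells was assessed with an MTT assay. A BaF3 line expressing wildtype EGFR served as comparator.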

[2] = tested on: BAF3 EGFR L858R-T790M PURO POOL; experiment: Cell proliferation (MTT), BAF3 EGFR L858R-T790M; format: cell-based; settings: Ba/F3 EGFR
Method in brief: as §1

[3] = target: EGFR bearing the L858R mution (Homo sapiens, UniProt P00533, L858R); experiment: Kinase inhibition, EGFR L858R; format: biochemical; settings: 10 μM ATP; 10 pt curves, 3 μM top concentration (singlicates)
Method in brief: (§2)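 Ten-point dose-response curves were run in singlicate from a 3 μM top concentration, with ATP at 10 μM.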

[4] = target: human EGFR (native sequence) (Homo sapiens, UniProt P00533); experiment: Kinase inhibition, human EGFR (native sequence); format: biochemical; settings: 10 μM ATP; 10 pt curves, 3 μM top concentration (singlicates)
Method in brief: as §2

BAF3 PARENTAL = experiment: Cell proliferation (MTT), BAF3 parental; format: cell-based; settings: Mus musculus
Method: We also assessed the antiproliferative activity of compounds of Formula (I) against BaF3 cells expressing the target EGFR mutations or control (i.e., cell lines expressing wildtype EGFR). Assays were conducted using MTT.

[5] = target: EGFR bearing the L858R/T790M double mutation (Homo sapiens, UniProt P00533, L858R/T790M); experiment: Kinase inhibition, EGFR L858R/T790M; format: biochemical; settings: 10 μM ATP; 10 pt curves, 3 μM top concentration (singlicates)
Method in brief: as §2

Sequence of EGFR bearing the L858R mution (P00533 25-1210 L858R): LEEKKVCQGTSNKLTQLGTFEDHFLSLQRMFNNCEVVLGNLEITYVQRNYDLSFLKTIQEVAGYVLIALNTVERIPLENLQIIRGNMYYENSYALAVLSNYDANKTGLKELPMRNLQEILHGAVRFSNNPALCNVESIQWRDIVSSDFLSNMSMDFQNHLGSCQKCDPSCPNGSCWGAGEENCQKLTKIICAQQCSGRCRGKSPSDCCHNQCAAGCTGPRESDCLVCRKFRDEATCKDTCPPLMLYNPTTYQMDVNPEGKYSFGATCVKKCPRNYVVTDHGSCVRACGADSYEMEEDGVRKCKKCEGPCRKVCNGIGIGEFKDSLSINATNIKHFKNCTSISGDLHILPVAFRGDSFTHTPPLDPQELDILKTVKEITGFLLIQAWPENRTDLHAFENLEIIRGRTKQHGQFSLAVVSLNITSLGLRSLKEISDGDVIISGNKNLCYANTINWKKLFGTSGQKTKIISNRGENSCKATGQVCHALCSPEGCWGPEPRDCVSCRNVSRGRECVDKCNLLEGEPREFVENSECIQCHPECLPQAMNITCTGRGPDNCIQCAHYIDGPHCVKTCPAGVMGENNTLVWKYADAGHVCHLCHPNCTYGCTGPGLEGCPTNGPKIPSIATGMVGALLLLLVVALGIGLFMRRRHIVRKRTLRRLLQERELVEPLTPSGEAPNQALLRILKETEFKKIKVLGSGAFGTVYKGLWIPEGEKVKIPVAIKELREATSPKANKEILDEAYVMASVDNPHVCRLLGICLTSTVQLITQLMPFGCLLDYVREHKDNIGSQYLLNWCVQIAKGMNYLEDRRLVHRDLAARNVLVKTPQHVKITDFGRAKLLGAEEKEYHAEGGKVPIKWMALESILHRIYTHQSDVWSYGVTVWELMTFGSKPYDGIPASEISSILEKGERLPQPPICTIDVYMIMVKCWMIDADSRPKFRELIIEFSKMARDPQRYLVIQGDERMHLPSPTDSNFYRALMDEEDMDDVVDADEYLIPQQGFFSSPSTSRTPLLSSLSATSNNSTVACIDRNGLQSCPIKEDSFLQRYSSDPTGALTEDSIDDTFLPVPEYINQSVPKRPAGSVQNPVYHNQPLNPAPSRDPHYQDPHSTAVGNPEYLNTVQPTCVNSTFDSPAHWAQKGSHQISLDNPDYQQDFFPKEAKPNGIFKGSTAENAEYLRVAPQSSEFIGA
Sequence of EGFR bearing the L858R/T790M double mutation (P00533 25-1210 T790M/L858R): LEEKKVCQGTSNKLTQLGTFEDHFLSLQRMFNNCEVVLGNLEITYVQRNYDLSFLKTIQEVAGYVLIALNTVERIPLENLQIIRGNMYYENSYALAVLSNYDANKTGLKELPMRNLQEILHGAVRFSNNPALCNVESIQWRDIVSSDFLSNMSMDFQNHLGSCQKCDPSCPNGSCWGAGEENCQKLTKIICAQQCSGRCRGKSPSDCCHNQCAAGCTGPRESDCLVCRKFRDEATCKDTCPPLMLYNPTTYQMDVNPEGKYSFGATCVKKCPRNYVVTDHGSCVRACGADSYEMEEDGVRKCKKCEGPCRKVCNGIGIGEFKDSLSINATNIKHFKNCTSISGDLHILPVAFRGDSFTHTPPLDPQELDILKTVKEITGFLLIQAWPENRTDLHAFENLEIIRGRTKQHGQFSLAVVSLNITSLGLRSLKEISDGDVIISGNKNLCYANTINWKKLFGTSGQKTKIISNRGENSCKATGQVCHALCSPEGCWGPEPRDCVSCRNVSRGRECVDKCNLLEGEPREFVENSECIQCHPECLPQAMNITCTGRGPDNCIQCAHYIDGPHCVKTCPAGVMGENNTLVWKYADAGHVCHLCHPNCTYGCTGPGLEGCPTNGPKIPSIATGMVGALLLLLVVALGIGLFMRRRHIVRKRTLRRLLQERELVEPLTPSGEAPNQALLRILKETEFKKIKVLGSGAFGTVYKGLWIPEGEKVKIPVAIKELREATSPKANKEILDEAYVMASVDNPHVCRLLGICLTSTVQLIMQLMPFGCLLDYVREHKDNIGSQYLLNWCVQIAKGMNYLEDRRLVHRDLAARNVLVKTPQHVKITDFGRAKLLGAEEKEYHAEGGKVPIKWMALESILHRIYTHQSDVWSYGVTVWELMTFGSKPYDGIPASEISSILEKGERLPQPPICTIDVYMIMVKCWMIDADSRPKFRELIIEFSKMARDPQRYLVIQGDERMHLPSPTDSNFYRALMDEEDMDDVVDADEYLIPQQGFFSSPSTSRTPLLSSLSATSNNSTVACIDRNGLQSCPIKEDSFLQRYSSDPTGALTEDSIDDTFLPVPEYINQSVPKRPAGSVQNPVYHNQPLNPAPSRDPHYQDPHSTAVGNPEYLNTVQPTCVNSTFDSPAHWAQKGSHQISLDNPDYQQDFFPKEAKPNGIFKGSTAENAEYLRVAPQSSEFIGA
Sequence of human EGFR (native sequence) (P00533 25-1210): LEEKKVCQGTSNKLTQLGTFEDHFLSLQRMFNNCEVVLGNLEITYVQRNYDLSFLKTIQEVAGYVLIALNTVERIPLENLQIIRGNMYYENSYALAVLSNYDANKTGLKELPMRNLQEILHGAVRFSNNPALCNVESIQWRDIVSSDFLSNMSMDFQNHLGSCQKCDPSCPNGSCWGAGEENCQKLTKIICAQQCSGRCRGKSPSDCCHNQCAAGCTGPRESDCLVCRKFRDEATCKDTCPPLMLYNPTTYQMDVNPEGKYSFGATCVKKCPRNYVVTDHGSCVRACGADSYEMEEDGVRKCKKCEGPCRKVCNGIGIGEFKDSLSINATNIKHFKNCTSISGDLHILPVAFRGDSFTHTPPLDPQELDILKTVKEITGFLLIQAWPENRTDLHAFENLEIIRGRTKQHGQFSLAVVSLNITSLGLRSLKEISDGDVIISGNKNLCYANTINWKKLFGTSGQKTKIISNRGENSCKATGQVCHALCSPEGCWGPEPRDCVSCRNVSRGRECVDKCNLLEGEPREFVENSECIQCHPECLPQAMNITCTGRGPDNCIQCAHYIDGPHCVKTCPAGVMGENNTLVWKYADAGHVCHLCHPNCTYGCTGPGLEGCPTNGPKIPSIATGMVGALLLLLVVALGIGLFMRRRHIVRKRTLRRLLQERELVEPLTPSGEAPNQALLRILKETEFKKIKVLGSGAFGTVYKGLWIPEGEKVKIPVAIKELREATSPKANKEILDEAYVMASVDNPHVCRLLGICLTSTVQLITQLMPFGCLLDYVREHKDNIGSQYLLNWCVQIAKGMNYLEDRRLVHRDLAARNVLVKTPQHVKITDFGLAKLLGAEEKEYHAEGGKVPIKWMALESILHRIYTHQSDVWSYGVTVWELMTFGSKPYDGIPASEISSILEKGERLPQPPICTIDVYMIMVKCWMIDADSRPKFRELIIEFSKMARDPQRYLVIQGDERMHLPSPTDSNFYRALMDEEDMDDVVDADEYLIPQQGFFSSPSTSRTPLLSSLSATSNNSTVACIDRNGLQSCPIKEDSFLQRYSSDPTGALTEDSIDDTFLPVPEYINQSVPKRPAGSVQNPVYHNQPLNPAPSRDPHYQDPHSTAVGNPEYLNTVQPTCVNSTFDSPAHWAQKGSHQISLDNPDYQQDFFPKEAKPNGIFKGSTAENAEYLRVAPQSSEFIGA
Sequence of BAF3 EGFR DEL T790M PURO POOL (P00533 with tags, fused parts or gaps DEL746-750/T790M): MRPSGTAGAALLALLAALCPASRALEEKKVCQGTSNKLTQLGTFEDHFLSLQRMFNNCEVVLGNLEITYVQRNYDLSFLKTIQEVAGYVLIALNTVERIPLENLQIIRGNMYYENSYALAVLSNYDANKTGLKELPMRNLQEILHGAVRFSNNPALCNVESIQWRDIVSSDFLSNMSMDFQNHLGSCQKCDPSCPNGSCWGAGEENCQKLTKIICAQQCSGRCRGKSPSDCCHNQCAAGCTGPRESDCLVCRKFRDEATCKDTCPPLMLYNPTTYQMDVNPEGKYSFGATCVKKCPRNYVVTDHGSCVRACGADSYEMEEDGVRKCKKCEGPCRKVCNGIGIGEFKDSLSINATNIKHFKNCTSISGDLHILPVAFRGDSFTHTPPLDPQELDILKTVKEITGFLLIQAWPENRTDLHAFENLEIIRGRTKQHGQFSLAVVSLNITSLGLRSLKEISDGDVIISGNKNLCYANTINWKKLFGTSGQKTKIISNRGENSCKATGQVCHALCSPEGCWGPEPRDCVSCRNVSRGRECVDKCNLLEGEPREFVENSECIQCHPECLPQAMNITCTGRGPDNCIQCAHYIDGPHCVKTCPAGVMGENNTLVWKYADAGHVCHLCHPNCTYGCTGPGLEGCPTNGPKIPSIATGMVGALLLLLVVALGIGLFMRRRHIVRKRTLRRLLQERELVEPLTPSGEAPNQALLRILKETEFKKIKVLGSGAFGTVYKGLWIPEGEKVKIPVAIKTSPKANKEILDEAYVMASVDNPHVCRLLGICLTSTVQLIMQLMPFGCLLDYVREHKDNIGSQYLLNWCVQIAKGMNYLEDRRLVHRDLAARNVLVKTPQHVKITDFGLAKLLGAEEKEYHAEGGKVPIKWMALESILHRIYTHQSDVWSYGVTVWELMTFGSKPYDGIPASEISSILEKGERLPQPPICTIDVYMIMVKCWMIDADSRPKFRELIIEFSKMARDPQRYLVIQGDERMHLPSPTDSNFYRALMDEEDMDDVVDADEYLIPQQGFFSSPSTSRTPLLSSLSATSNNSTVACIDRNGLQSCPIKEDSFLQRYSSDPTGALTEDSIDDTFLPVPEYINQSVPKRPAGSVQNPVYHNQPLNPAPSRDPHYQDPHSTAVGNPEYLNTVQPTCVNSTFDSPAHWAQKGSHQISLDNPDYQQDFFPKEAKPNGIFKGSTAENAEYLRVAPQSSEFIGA

SMILES	IC50 [1] [nM]	IC50 [2] [nM]	IC50 [3] [nM]	IC50 [4] [nM]	IC50 (BAF3 PARENTAL) [nM]	IC50 [5] [nM]
C=CC(=O)Nc1cc(Nc2ncc(CC)c(Nc3ccccc3P(C)(C)=O)n2)c(OC)cc1N(C)CCN(CC)CC [Example 62, N-(2-((2-(diethylamino)ethyl)(methyl)amino)-5-((4-((2-(dimethylphosphoryl)phenyl)amino)-5-ethylpyrimidin-2-yl)amino)-4-methoxyphenyl)acrylamide]	< 51	< 51	< 51	51 to 100	≥ 250	51 to 100
C=CC(=O)Nc1ccc(OC)c(Nc2ncc(CC)c(Nc3ccccc3P(C)(C)=O)n2)c1 [Example 63, N-(3-((4-((2-(dimethylphosphoryl)phenyl)amino)-5-ethylpyrimidin-2-yl)amino)-4-methoxyphenyl)acrylamide]	< 51	< 51	< 51	< 51	≥ 250	< 51
C=CC(=O)Nc1ccc(OC)c(Nc2ncc(C)c(Nc3ccccc3P(C)(C)=O)n2)c1 [Example 64, N-(3-((4-((2-(dimethylphosphoryl)phenyl)amino)-5-methylpyrimidin-2-yl)amino)-4-methoxyphenyl)acrylamide]	< 51	< 51	< 51	< 51	≥ 250	< 51
C=CC(=O)Nc1ccc(OC)c(Nc2ncc(C3CC3)c(Nc3ccccc3P(C)(C)=O)n2)c1 [Example 65, N-(3-((5-cyclopropyl-4-((2-(dimethylphosphoryl)phenyl)amino)pyrimidin-2-yl)amino)-4-methoxyphenyl)acrylamide]	< 51	< 51	< 51	51 to 100	≥ 250	< 51
